Data as given in patent US9284303B2, “Benzimidazole cannabinoid agonists bearing a substituted heterocyclic group” (priority 2006, dated 2016).
pEC50: −log10 of the molar value. Where two headings read alike, the source gives them in different places.

Experiments:
[1] = biological target: T1, human CB1 (hCB1) receptor (Homo sapiens, UniProt P21554); experiment: Inhibition of forskolin-activated cAMP production upon activation of hCB1 (HTRF), CHO-K1 cells; assay type: cell-based; details: CB1 pEC50, hCB1-CHO-K1 cells, forskolin-activated cAMP, pEC50=-log(EC50)
T1 construct: expressed in transfected cells; host or cells: CHO-K1
Experimental: (§1) Functional activity of the test compounds was assessed by measuring their potency to inhibit forskolin-activated cAMP production upon activation of the human CB1 (hCB1) or human CB2 (hCB2) receptor through homogenous time resolved fluorescence (HTRF) assays.
CHO-K1 cells stably transfected with either hCB1 or hCB2 were grown up to 80-90% confluence in T175 Falcon flasks in DMEM/NUT MIX F-12 culture medium complemented with 2% Solution A (5.10^6 IU/l penicillin G, 5 g/l streptomycin sulphate, 5.5 g/l pyruvate, 14.6 g/l L-glutamine, 1M NaOH) and 10% foetal calf serum. Before the experiments, medium was removed, cells were washed with PBS/EDTA (140 mM NaCl, 1 mM Naz-EDTA, 8 mM Na2HPO4.2H2O, 8.5 mM KH2PO4, 2.7 mM KCl, 21 mM glucose), resuspended in stimulation buffer (HBSS 1x, IBMX 1 mM, Hepes 5 mM, MgCl2 10 mM, BSA 0.1%, pH 7.4). Cells were diluted to a concentration of 8.10^5 cell/ml for hCB1 experiments and 10^6 cells/ml for hCB2 experiments. Assays were performed using the cAMP Dynamic HTRF kit (CIS bio international, France) according to the recommendations of the manufacturer.
For CB1, each well of a 96 flat bottom black polystyrene assay plate (Costar) was filled with 25 μl stimulation buffer containing 6 μM forskolin and either test compound (in 2% DMSO), 2% DMSO or 2 μM CP55490 (in 2% DMSO). Then, 25 μl of the diluted cells was added (20,000 cells/well). After 30 minutes incubation in dark at room temperature, 25 μl cAMP-XL665 and 25 μl anti-cAMP cryptate (both at a final dilution of 1/80) was added to the cells.
After equilibration of the reaction mixtures for 1 to 24 hours in dark at room temperature, fluorescence was measured at 665 nm and 620 nm using a Discovery microplate fluorescence counter (Perkin Elmer), and the signal ratio of 665 nm/620 nm was calculated. The signal ratios of the test compounds were expressed relative to the signal ratios of the DMSO control (maximal signal ratio, no inhibition of cAMP) and CP55490 or WIN55212-2 for hCB1 and hCB2, respectively (minimal signal ratio, maximal inhibition of cAMP). From the dose response curves generated for each test compound, the dose at which 50% of the maximal inhibition of cAMP level is observed (EC50, expressed in the Tables as pEC50=−log(EC50) values) and the level of inhibition reached with 10 μM of the test compound compared to CP55490 (for hCB1) or WIN55212-2 (for hCB2) was calculated.

[2] = biological target: T2, human CB2 (hCB2) receptor (Homo sapiens, UniProt P34972); experiment: Inhibition of forskolin-activated cAMP production upon activation of hCB2 (HTRF), CHO-K1 cells; assay type: cell-based; details: for ratio CB2 agonism over CB1 agonism: Table C-1, selectivity hCB2 over hCB1; for ratio CB2 over CB1 agonism: Table C-3, comparison of art compounds A to E with compounds of the invention; for EC50: hCB2-CHO-K1 cells, read-out: CB2 pEC50 (converted)
T2 construct: expressed in transfected cells; host or cells: CHO-K1
Experimental: as §1
Before the experiments, medium was removed, cells were washed with PBS/EDTA (140 mM NaCl, 1 mM Naz-EDTA, 8 mM Na2HPO4.2H2O, 8.5 mM KH2PO4, 2.7 mM KCl, 21 mM glucose), resuspended in stimulation buffer (HBSS 1x, IBMX 1 mM, Hepes 5 mM, MgCl2 10 mM, BSA 0.1%, pH 7.4). Cells were diluted to a concentration of 8.10^5 cell/ml for hCB1 experiments and 10^6 cells/ml for hCB2 experiments. Assays were performed using the cAMP Dynamic HTRF kit (CIS bio international, France) according to the recommendations of the manufacturer.
Then, 20 μl of the diluted hCB2-CHO-K1 cells was added (20,000 cells/well). After 30 minutes incubation in dark at room temperature, 10 μl cAMP-XL665 and 10 μl anti-cAMP cryptate (both at a final dilution of 1/100) was added to the cells.

[3] = forskolin-activated cAMP, pEC50=-log(EC50)

T1 sequence (P21554 whole entry): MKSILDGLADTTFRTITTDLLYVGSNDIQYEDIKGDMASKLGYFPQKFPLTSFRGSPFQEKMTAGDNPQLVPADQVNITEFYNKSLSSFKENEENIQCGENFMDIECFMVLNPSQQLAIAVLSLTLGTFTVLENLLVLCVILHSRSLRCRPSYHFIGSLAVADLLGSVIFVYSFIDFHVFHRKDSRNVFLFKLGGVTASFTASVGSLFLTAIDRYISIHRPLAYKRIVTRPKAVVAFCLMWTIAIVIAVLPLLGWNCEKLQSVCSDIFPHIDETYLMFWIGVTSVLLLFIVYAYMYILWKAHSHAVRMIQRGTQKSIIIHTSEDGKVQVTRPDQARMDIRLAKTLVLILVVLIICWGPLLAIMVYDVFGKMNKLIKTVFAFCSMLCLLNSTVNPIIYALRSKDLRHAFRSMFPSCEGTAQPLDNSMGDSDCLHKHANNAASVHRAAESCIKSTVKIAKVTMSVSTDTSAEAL
T2 sequence (P34972 whole entry): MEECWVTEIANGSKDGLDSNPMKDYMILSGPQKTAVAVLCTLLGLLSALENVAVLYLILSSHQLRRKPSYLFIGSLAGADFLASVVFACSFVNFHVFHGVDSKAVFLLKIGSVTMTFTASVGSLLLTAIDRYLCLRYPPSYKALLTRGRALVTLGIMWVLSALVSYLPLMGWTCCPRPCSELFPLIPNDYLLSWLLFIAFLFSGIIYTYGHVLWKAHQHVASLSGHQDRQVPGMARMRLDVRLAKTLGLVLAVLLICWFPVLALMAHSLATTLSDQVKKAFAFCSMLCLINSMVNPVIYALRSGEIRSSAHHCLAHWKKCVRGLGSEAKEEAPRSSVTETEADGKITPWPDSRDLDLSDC

SMILES | pEC50 [1] | melting point [°C] | ratio CB2 agonism over CB1 agonism [2] | ratio CB2 over CB1 agonism [2] | EC50 [2, 3] [nM] | pEC50 ([2]; CB2 pEC50, hCB2-CHO-K1 cells, forskolin-activated cAMP, pEC50=-log(EC50))
CC(=O)Nc1cc(S(=O)(=O)c2ccc3c(c2)nc(C(C)(C)C)n3CC2CCOCC2)ccn1 [Co. No. 22] | 5.70 | 262.3 | 1758 | 1758 | 1.12 | –
CC(C)(C)c1nc2cc(S(=O)(=O)c3ccnc(OCC(F)(F)F)c3)ccc2n1CC1CCOCC1 [Co. No. 23] | 6.39 | 166.7 | 398 | 398 | 1.02 | –
Cc1cc(S(=O)(=O)c2ccc3c(c2)nc(CC(C)(C)C)n3CC2CCOCC2)ccn1 [Co. No. 24] | 6.05 | 207.1 | 407 | 407 | 2.19 | –
CC(C)(C)c1nc2cc(S(=O)(=O)c3ccc(S(C)(=O)=O)nc3)ccc2n1CC1CCCCC1 [Co. No. 27] | < 5.00 | 200 | >14125 | – | 0.708 | –
Cn1cc(S(=O)(=O)c2ccc3c(c2)nc(C(C)(C)C)n3CC2CCOCC2)ccc1=O [Co. No. 28] | < 5.00 | 170 | >3467 | 3467 | 2.88 | –
CC(C)(C)c1nc2cc(S(=O)(=O)c3nccc(C(N)=O)n3)ccc2n1CC1CCOCC1 [Co. No. 29] | 5.88 | 220 to 222 | 417 | – | 3.16 | –
COC(=O)c1ccc(S(=O)(=O)c2ccc3c(c2)nc(C(C)(C)C)n3CC2CCOCC2)nc1 [Co. No. 30] | 5.28 | 195 to 197 | 3055 | – | 1.7 | –
CC(C)(C)c1nc2cc(S(=O)(=O)c3cncc(C#N)c3)ccc2n1CC1CCCCC1 [Co. No. 36] | 7.14 | 215 to 216 | 108 | – | 0.676 | –
COCCNC(=O)c1ccc(S(=O)(=O)c2ccc3c(c2)nc(C(C)(C)C)n3CC2CCCCC2)nc1 [Co. No. 37] | < 5.00 | 206 to 207 | >10839 | – | 0.933 | –
CC(=O)c1ccc(S(=O)(=O)c2ccc3c(c2)nc(C(C)(C)C)n3CC2CCOCC2)s1 [Co. No. 40] | 6.68 | 151 | 193 | – | 1.07 | –
CC(O)c1ccc(S(=O)(=O)c2ccc3c(c2)nc(C(C)(C)C)n3CC2CCOCC2)nc1 (centres unmarked) [Co. No. 42] | – | 177 to 179 | – | – | 3.98 | 9.20
CC(C)(C)c1nc2cc(S(=O)(=O)c3cncc(C#N)c3)ccc2n1CC1CCOCC1 [Co. No. 43] | 5.79 | 240 | 1622 | – | 1 | –
CC(C)(C)c1nc2cc(S(=O)(=O)c3cncc(C(N)=O)c3)ccc2n1CC1CCOCC1 [Co. No. 44] | 6.90 | 259 | 64 | – | 2 | –
CC(C)(C)c1nc2cc(S(=O)(=O)c3ccc(C4(C)OCCO4)cn3)ccc2n1CC1CCOCC1 [Co. No. 45] | < 5.00 | 191 | >3311 | – | 3.02 | –
CC(C)(C)c1nc2cc(S(=O)(=O)c3ccn(/C(F)=C\I)c(=O)c3)ccc2n1CC1CCOCC1 [Co. No. 91] | – | 164.4 | 1995 | – | 5.01 | –
